Source: ChEMBL document CHEMBL1201862, “PubChem BioAssay data set” (2004)
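How tested: cells in 96-well plates exposed to compound for 48 hours at five concentrations. At the GI50, growth is halved.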 The source made the active and inactive calls. Rule as the data show it: active = GI50 up to about 1.1 µM and inactive = higher.

What was measured:
Assay in all cases: NCI anticancer screen, dose series, 48 h
T47D = tested on: T47D
HOP-62 = tested on: HOP-62
A549 = tested on: A549
MOLT-4 = tested on: MOLT-4
BT-549 = tested on: BT-549
IGROV-1 = tested on: IGROV-1
ACHN = tested on: ACHN
UO-31 = tested on: UO-31
NCI-H226 = tested on: NCI-H226
HCC 2998 = tested on: HCC 2998
TK-10 = tested on: TK-10
OVCAR-3 = tested on: OVCAR-3
CAKI-1 = tested on: CAKI-1
SW-620 = tested on: SW-620
SN12C = tested on: SN12C
SK-MEL-28 = tested on: SK-MEL-28
A498 = tested on: A498
OVCAR-5 = tested on: OVCAR-5
MCF7 = tested on: MCF7

Row | Compound | GI50 (T47D) | GI50 (HOP-62) | GI50 (A549) | GI50 (MOLT-4) | GI50 (BT-549) | GI50 (IGROV-1) | GI50 (ACHN) | GI50 (UO-31) | GI50 (NCI-H226) | GI50 (HCC 2998) | GI50 (TK-10) | GI50 (OVCAR-3) | GI50 (CAKI-1) | GI50 (SW-620) | GI50 (SN12C) | GI50 (SK-MEL-28) | GI50 (A498) | GI50 (OVCAR-5) | GI50 (MCF7)
1 | CCOc1ccccc1Nc1ccc(N)cc1S(=O)(=O)O | > 100 µM (inactive) | > 100 µM (inactive) | > 100 µM (inactive) | > 100 µM (inactive) | > 100 µM (inactive) | > 100 µM (inactive) | > 100 µM (inactive) | > 100 µM (inactive) | > 100 µM (inactive) | > 100 µM (inactive) | > 100 µM (inactive) | > 100 µM (inactive) | > 100 µM (inactive) | > 100 µM (inactive) | > 100 µM (inactive) | > 100 µM (inactive) | > 100 µM (inactive) | > 100 µM (inactive) | –
2 | COC(=O)c1cc(CC2Cc3cc4c(cc3C2)CCC4)cc2c1CCC2 | > 100 µM (inactive) | > 100 µM (inactive) | > 100 µM (inactive) | 23.7 µM (inactive) | – | 97.1 µM (inactive) | > 100 µM (inactive) | > 100 µM (inactive) | > 100 µM (inactive) | > 100 µM (inactive) | > 100 µM (inactive) | > 100 µM (inactive) | > 100 µM (inactive) | > 100 µM (inactive) | > 100 µM (inactive) | > 100 µM (inactive) | > 100 µM (inactive) | > 100 µM (inactive) | 89.1 µM (inactive)
3 | CC(C)(C)c1cc(C(C)(C)C)c2sc(=O)oc2c1O | 6.14 µM (inactive) | 17 µM (inactive) | 13.2 µM (inactive) | 8.26 µM (inactive) | 18.7 µM (inactive) | 14.2 µM (inactive) | 12.1 µM (inactive) | 11.6 µM (inactive) | 20.2 µM (inactive) | – | 11.8 µM (inactive) | 11.8 µM (inactive) | 12.4 µM (inactive) | – | 12.4 µM (inactive) | 16.3 µM (inactive) | 13.7 µM (inactive) | 18.5 µM (inactive) | 12.6 µM (inactive)
4 | O=C(O)c1ccc2[nH]c(=O)oc2c1 | – | > 100 µM (inactive) | – | > 100 µM (inactive) | > 100 µM (inactive) | > 100 µM (inactive) | > 100 µM (inactive) | – | > 100 µM (inactive) | – | > 100 µM (inactive) | > 100 µM (inactive) | > 100 µM (inactive) | > 100 µM (inactive) | > 100 µM (inactive) | > 100 µM (inactive) | > 100 µM (inactive) | > 100 µM (inactive) | > 100 µM (inactive)
5 | Cc1cc(=O)oc2cc(OCc3c(F)cccc3Cl)ccc12 | 2.49 µM (inactive) | 13 µM (inactive) | > 100 µM (inactive) | – | 28.2 µM (inactive) | 9.46 µM (inactive) | 79.8 µM (inactive) | > 100 µM (inactive) | 33.3 µM (inactive) | – | > 100 µM (inactive) | > 100 µM (inactive) | 17.2 µM (inactive) | – | > 100 µM (inactive) | > 100 µM (inactive) | > 100 µM (inactive) | > 100 µM (inactive) | 4.6 µM (inactive)
6 | COc1ccccc1-c1nc[nH]c1-c1ccccc1OC | 37.6 µM (inactive) | 40.8 µM (inactive) | 22.6 µM (inactive) | 29.2 µM (inactive) | 33.4 µM (inactive) | 29 µM (inactive) | 35.9 µM (inactive) | 45.1 µM (inactive) | – | – | 22.5 µM (inactive) | 24.2 µM (inactive) | 31 µM (inactive) | 40.3 µM (inactive) | 38 µM (inactive) | 33.7 µM (inactive) | 27.7 µM (inactive) | 37.9 µM (inactive) | 24.8 µM (inactive)
7 | COP(=O)(OC)[C@@](O)(c1ccccc1)[C@@H](O)[C@@H](O)c1ccccc1 | > 100 µM (inactive) | – | > 100 µM (inactive) | – | > 100 µM (inactive) | 87.5 µM (inactive) | > 100 µM (inactive) | > 100 µM (inactive) | > 100 µM (inactive) | – | > 100 µM (inactive) | > 100 µM (inactive) | > 100 µM (inactive) | 44.7 µM (inactive) | > 100 µM (inactive) | > 100 µM (inactive) | > 100 µM (inactive) | > 100 µM (inactive) | 27.6 µM (inactive)
8 | Cn1cnc(N2CCCC2)c(C#N)c1=O | > 100 µM (inactive) | > 100 µM (inactive) | > 100 µM (inactive) | > 100 µM (inactive) | – | > 100 µM (inactive) | > 100 µM (inactive) | > 100 µM (inactive) | > 100 µM (inactive) | > 100 µM (inactive) | > 100 µM (inactive) | > 100 µM (inactive) | > 100 µM (inactive) | > 100 µM (inactive) | > 100 µM (inactive) | > 100 µM (inactive) | > 100 µM (inactive) | > 100 µM (inactive) | > 100 µM (inactive)
9 | COc1ccccc1NC(=S)NN=C(C)c1cccc(C(C)=NNC(=S)Nc2ccccc2OC)n1 | > 100 µM (inactive) | 42.8 µM (inactive) | 29.2 µM (inactive) | 3.54 µM (inactive) | – | 25.5 µM (inactive) | 14.7 µM (inactive) | 20.6 µM (inactive) | 28.4 µM (inactive) | > 100 µM (inactive) | 0.18 µM (active) | 7.87 µM (inactive) | 82.2 µM (inactive) | 7.73 µM (inactive) | 30 µM (inactive) | 79.4 µM (inactive) | 29.1 µM (inactive) | > 100 µM (inactive) | 29.1 µM (inactive)
10 | O=C1Nc2ccccc2/C1=N/NC(=S)N1CCCCCC1 | 3.78 µM (inactive) | 0.242 µM (active) | 0.643 µM (active) | 0.366 µM (active) | – | 0.187 µM (active) | 0.824 µM (active) | 0.35 µM (active) | 1.36 µM (inactive) | 1.52 µM (inactive) | 1.8 µM (inactive) | 0.163 µM (active) | 1.43 µM (inactive) | 0.594 µM (active) | 1.42 µM (inactive) | 1.87 µM (inactive) | 1.07 µM (active) | 2.59 µM (inactive) | 1.96 µM (inactive)
11 | O=C(c1ccccc1)c1ccc2c(c1)NC(=O)c1ccccc1SSc1ccccc1C(=O)N2 | > 100 µM (inactive) | > 100 µM (inactive) | > 100 µM (inactive) | > 100 µM (inactive) | > 100 µM (inactive) | > 100 µM (inactive) | > 100 µM (inactive) | > 100 µM (inactive) | > 100 µM (inactive) | – | > 100 µM (inactive) | > 100 µM (inactive) | > 100 µM (inactive) | > 100 µM (inactive) | > 100 µM (inactive) | > 100 µM (inactive) | > 100 µM (inactive) | > 100 µM (inactive) | –
12 | O=P1(Oc2ccc(Cl)cc2)OCCS1 (centres undefined) | > 100 µM (inactive) | > 100 µM (inactive) | > 100 µM (inactive) | – | > 100 µM (inactive) | > 100 µM (inactive) | > 100 µM (inactive) | > 100 µM (inactive) | > 100 µM (inactive) | > 100 µM (inactive) | > 100 µM (inactive) | – | – | > 100 µM (inactive) | > 100 µM (inactive) | > 100 µM (inactive) | > 100 µM (inactive) | > 100 µM (inactive) | –
13 | Cc1nc2c(C)ccc([N+](=O)[O-])c2c(NCCCN(C)C)c1C | > 100 µM (inactive) | > 43.9 µM (inactive) | > 47.1 µM (inactive) | 28.3 µM (inactive) | – | > 100 µM (inactive) | > 100 µM (inactive) | > 100 µM (inactive) | 67.1 µM (inactive) | 27.4 µM (inactive) | > 41.6 µM (inactive) | 47.9 µM (inactive) | 66.4 µM (inactive) | > 38.5 µM (inactive) | > 62.8 µM (inactive) | 27.1 µM (inactive) | > 22.3 µM (inactive) | > 72.1 µM (inactive) | 46.5 µM (inactive)
14 | CC[C@H](C)C1=C(OC(C)=O)[N@+]2([O-])Oc3ccc(-c4c(O)c(O)c(-c5ccc(OC(C)=O)cc5)c(OC(C)=O)c4OC(C)=O)cc3O[C@]2([C@@H](C)CC)C(=O)N1O | 15.1 µM (inactive) | 24.6 µM (inactive) | 18.8 µM (inactive) | 13.2 µM (inactive) | 16.9 µM (inactive) | 17 µM (inactive) | 14.9 µM (inactive) | 35 µM (inactive) | – | – | 20.4 µM (inactive) | 15 µM (inactive) | 26.3 µM (inactive) | 11.1 µM (inactive) | 19.4 µM (inactive) | 27 µM (inactive) | 7.85 µM (inactive) | 22.9 µM (inactive) | 19.4 µM (inactive)
15 | CN(C)/C=C/C=C(/C=N/S(=O)(=O)C(F)(F)F)C1C=CN(S(=O)(=O)C(F)(F)F)C=C1 | 23.4 µM (inactive) | 39.4 µM (inactive) | 32.4 µM (inactive) | 26.2 µM (inactive) | 26.2 µM (inactive) | 54.3 µM (inactive) | 28.8 µM (inactive) | 29.1 µM (inactive) | 26 µM (inactive) | 28.1 µM (inactive) | 36.6 µM (inactive) | 32.4 µM (inactive) | 25.6 µM (inactive) | 38.1 µM (inactive) | 40.6 µM (inactive) | 91.8 µM (inactive) | 41 µM (inactive) | 30.2 µM (inactive) | –
16 | CCOC(=O)Cn1c(=O)c2nc(SC)sc2n(-c2ccc(C)cc2)c1=S | > 87.1 µM (inactive) | 20 µM (inactive) | > 60.4 µM (inactive) | > 100 µM (inactive) | – | 55.3 µM (inactive) | 48.1 µM (inactive) | 48.6 µM (inactive) | 23.8 µM (inactive) | > 56.9 µM (inactive) | 36.7 µM (inactive) | 50.4 µM (inactive) | > 100 µM (inactive) | > 100 µM (inactive) | > 52.2 µM (inactive) | > 100 µM (inactive) | 46.8 µM (inactive) | > 100 µM (inactive) | > 100 µM (inactive)
